Measured values reported in ChEMBL document CHEMBL5385900, “New insights in the development of positive allosteric modulators of α-amino-3-hydroxy-5-methyl-4-isoxazolepropionic acid (AMPA) receptors belonging to 3,4-dihydro-2H-1,2,4-benzothiadiazine 1,1-dioxides: Introduction of (mono/difluoro)methyl groups at the 2-position of the thiadiazine ring” (Eur J Med Chem, 2023).
Activity calls are given as the source filed them. The rule behind the calls is not given here.

Assays:
[1] = molecular target: T1, Glutamate receptor ionotropic, AMPA (Rattus norvegicus) (UniProt P19491+P19492+P19493+P19490); assay: Positive allosteric modulation at AMPAR in rat primary cortical cells assessed as concentration required for 2 fold increase in AMPA induced current amplitude by FlipR assay; assay type: cell-based; conditions: Primary cortical neuron, filed as positive allosteric modulator
[2] = molecular target: T1, Glutamate receptor ionotropic, AMPA (Rattus norvegicus); assay: Positive allosteric modulation at AMPAR in rat primary cortical cells assessed as concentration required for 2 fold increase in AMPA induced current amplitude by FDSS fluorescence assay; assay type: cell-based; conditions: Primary cortical neuron, filed as positive allosteric modulator
[3] = molecular target: Glutamate receptor ionotropic AMPA (Homo sapiens, UniProt P42261+P42262+P42263+P48058); assay: Positive allosteric modulation at AMPAR in HEK293 cells expressing GluA2Q assessed as glutamate induced calcium influx; assay type: cell-based
[4] = molecular target: T1, Glutamate receptor ionotropic, AMPA (Rattus norvegicus); assay: Positive allosteric modulation at AMPAR in rat hippocampal assessed as increase in AMPA induced noradrenaline release; set-up: concentration or dose not given beside the values
[5] = molecular target: T1, Glutamate receptor ionotropic, AMPA (Rattus norvegicus); assay: Positive allosteric modulation at AMPAR in rat hippocampal assessed as increase in AMPA induced noradrenaline release by measuring concentration required for 2 fold increase in noradrenaline release; conditions: filed as positive allosteric modulator
[6] = Toxicity in NMR1 mouse assessed as pro-convulsant effect at 30 mg/kg, po; assay type: organism-based; conditions: in vivo
[7] = Toxicity in NMR1 mouse assessed as pro-convulsant effect at 100 mg/kg, po; assay type: organism-based; conditions: in vivo
[8] = system: Rattus norvegicus; assay: Cognition enhancing effect in Wistar rat assessed as increase in long-term potentiation of synaptic response at 10 mg/kg, ip pretreated for 1 hr followed by tetanic stimulation and measured for 3 hrs; assay type: functional, organism-based; conditions: time 4.0 hrs
[9] = system: Mus musculus; assay: Cognition enhancing effect in CD1 mouse assessed as increase in exploration time for novel object at 1 mg/kg, po after 1 hr by object recognition test (reference value: 40%); assay type: functional
[10] = system: Mus musculus; assay: Cognition enhancing effect in CD1 mouse assessed as increase in exploration time for novel object at 3 mg/kg, po after 1 hr by object recognition test (reference value: 40%); assay type: functional
[11] = molecular target: Glutamate receptor ionotropic AMPA (Homo sapiens) (UniProt P48058+P42263+P42262+P42261); assay: Positive allosteric modulation at AMPAR in HEK293 cells expressing GluA2Q assessed as glutamate induced calcium influx relative to control; assay type: cell-based; conditions: filed as positive allosteric modulator
[12] = system: Mus musculus; assay: Cognition enhancing effect in C57BL/6 mouse assessed as increase in performance of spontaneous alteration at 0.1 mg/kg, ip after 1 hr by T-maze test; assay type: functional, organism-based
[13] = system: Mus musculus; assay: Cognition enhancing effect in C57BL/6 mouse assessed as increase in performance of spontaneous alteration at 0.3 mg/kg, ip after 1 hr by T-maze test; assay type: functional, organism-based
[14] = filed as positive allosteric modulator

| SMILES | EC [1] | EC [2] | EC50 [3] | Activity [4, 14] | also measured |
| --- | --- | --- | --- | --- | --- |
| CC1N(C)c2ccc(Cl)cc2S(=O)(=O)N1C (centres undefined) | 4.3 µM | 0.8 µM | 81.3 µM | 112% | – |
| O=S1(=O)c2cc(F)ccc2N(C2CC2)CN1CF | 0.6 µM | – | 0.282 µM | 427% | – |
| CC1N(C2CC2)c2ccc(F)cc2S(=O)(=O)N1C (centres undefined) | 70.9 µM | – | > 100 µM | – | Activity [4]: < 100% |
| CCN1c2ccc(Cl)cc2S(=O)(=O)N(CC)C1C (centres undefined) | – | 12.2 µM | > 100 µM | – | Activity [4]: < 100% |
| CN1CN(C2CC2)c2ccc(Cl)cc2S1(=O)=O | 13.4 µM | – | > 100 µM | – | – |
| O=S1(=O)c2cc(F)ccc2N(C2CC2)CN1C(F)F | 6.9 µM | – | 16.6 µM | 345% | – |
| O=S1(=O)c2cc(Cl)ccc2N(C2CC2)CN1CF | 2.1 µM | 1.5 µM | 2.19 µM | 394% | EC [5]: 5 µM; Activity [6]: Non-Toxic; Activity [7]: Non-Toxic; Activity [8]: Active; Activity [9]: 64%; Activity [10]: 78%; Emax [11]: 90%; Activity [12]: Active |
| CN1CN(C2CC2)c2ccc(F)cc2S1(=O)=O | 9.3 µM | – | 57.5 µM | – | Activity [4]: < 100% |
| CC1N(C)c2ccc(F)cc2S(=O)(=O)N1C (centres undefined) | 4.1 µM | – | 15.1 µM | 167% | – |
| CC1N(C2CC2)c2ccc(Cl)cc2S(=O)(=O)N1C (centres undefined) | 65 µM | – | > 100 µM | – | Activity [4]: < 100% |
| CCN1c2ccc(Cl)cc2S(=O)(=O)N(C)C1C (centres undefined) | 6.2 µM | – | 31.6 µM | 103% | – |
| O=S1(=O)c2cc(Cl)ccc2N(C2CC2)CN1C(F)F | – | 6 µM | > 100 µM | 340% | – |
| CC1N(C2CC2)c2ccc(Cl)cc2S(=O)(=O)N1CF (centres undefined) | 2.5 µM | – | 2.14 µM | 329% | – |
| CCN1c2ccc(F)cc2S(=O)(=O)N(C)C1C (centres undefined) | – | 1.4 µM | 8.71 µM | 135% | – |
| O=S1(=O)NCN(C2CC2)c2ccc(Cl)cc21 | 2.2 µM | 0.7 µM | 0.794 µM | 311% | EC [5]: 4.5 µM; Activity [6]: Non-Toxic; Activity [8]: Active; Activity [9]: 82%; Activity [10]: 79%; Emax [11]: 100%; Activity [13]: Active |
| CCN1C(C)N(C)c2ccc(Cl)cc2S1(=O)=O (centres undefined) | – | 11.2 µM | > 100 µM | – | Activity [4]: < 100% |
| O=S1(=O)NCN(C2CC2)c2ccc(F)cc21 | 0.2 µM | 0.3 µM | 0.275 µM | 230% | – |
